The results in this text go back to ChEMBL document CHEMBL4402556, “Mycobacterium tuberculosis Decaprenylphosphoryl-β-d-ribose Oxidase Inhibitors: Expeditious Reconstruction of Suboptimal Hits into a Series with Potent in Vivo Activity” (J Med Chem, 2020).

The structures appear in SMILES notation. ≈ marks a conversion by molar mass, not a printed value.

As a reminder, the MIC90 is the lowest concentration that inhibits either 90% of growth or 90% of the strains tested, depending on the study. What is called IC50 is the concentration needed to halve the response being measured. A word on the pIC50: it is the negative decadic logarithm of the IC50, by convention in mol/L. Low readings indicate a large IC50, high ones a small IC50.

For series [1], the system named is Mycobacterium tuberculosis. The series can be described thus: Antitubercular activity against Mycobacterium tuberculosis H37Rv infected in po dosed C57BL/6 mouse model of acute infection assessed as reduction in mycobacterial burden in lung administration for 8 consecutive days starting from day 1 post-infection and measured after 24 hrs post-last dose. The format is functional.

For series [2], the system named is Mycobacterium tuberculosis. The series is described as follows: Antitubercular activity against Mycobacterium tuberculosis H37Rv infected in po dosed C57BL/6 mouse model of acute infection assessed as effect on mycobacterial burden in lung pretreated with CYP inhibitor ABT 2 hrs prior followed by compound administration for 8 consecutive days starting from day 1 post-infection and measured after 24 hrs post-last dose. It counts as functional.

In series [3] the test system is Mycobacterium tuberculosis. The series can be described thus: Antitubercular activity against wild type Mycobacterium tuberculosis H37Rv ATCC 25618 transfected with pATB45luc plasmid expressing luciferase infected in human THP1 cells assessed as reduction in bacterial growth after 4 days by BrightGlo luciferase assay. It counts as functional. Conditions: H37Rv ATCC 25618, 96 h.

Series [4] concerns HepG2. The series can be described thus: Cytotoxicity against human HepG2 cells assessed as reduction in cell viability measured after 48 hrs by CellTiter-Glo assay. The format is cell-based. Conditions: HepG2, 48 h.
Series [5] relates to Mycobacterium tuberculosis. The series can be described thus: Antitubercular activity against wild type Mycobacterium tuberculosis H37Rv ATCC 25618 assessed as bacterial growth inhibition measured after 6 days by resazurin assay. It counts as functional. The settings on record: H37Rv ATCC 25618, 144 h. Background: Resazurin is reduced to fluorescent resorufin, in cell work by metabolically active cells.

The nature of series [6]: Kinetic aqueous solubility of the compound in phosphate buffer saline at pH 7.4 after 1 hr by CLND method. It counts as physicochemical. Conditions: phosphate buffered saline, read-out: Kinetic_solubility.
A short description of series [7]: Inhibition of Mycobacterium tuberculosis DprE1 expressed in Escherichia coli BL21 (DE3) using farnesylphosphoryl-beta-D-ribose as substrate.
For series [8], the system named is Mycobacterium tuberculosis. The series can be described thus: Antibacterial activity against Mycobacterium tuberculosis transfected with pMV261 vector expressing DprE1 assessed as bacterial growth inhibition. The format is functional.
The subject of series [9] is Mycobacterium tuberculosis. The series can be described thus: Antitubercular activity against Mycobacterium tuberculosis H37Rv infected in C57BL/6 mouse model of acute infection assessed as reduction in mycobacterial burden in lung at 100 mg/kg, po treated for 8 consecutive days starting from day 1 post-infection and measured after 24 hrs post-last dose (reference value: 5.8 log10cfu). It counts as functional.

With `COc1ncnc(Cn2cc(C(=O)NCCF)c3ncccc32)c1C`, the ED99 in series [1] was 164 mg/kg; in series [2], 11 mg/kg. Further, the MIC90 in series [3] is 0.62 µM (≈ 0.213 µg/mL); in series [5] it was 4 µM (≈ 1.37 µg/mL); in series [8], over 125 µM. Besides, in [4], the IC50 was over 100 µM. The solubility kinetic at 1 h in series [6] was determined as 26 µM (≈ 8.93 µg/mL). In addition, the pIC50 in [7] is 7.4.
`COc1c(N2C[C@@H]3CCCN[C@@H]3C2)c(F)cc2c(=O)c(C(=O)O)cn(C3CC3)c12` [MOXIFLOXACIN]: in series [9], the Activity amounted to 2.7 log10CFU.
